In ChEMBL document CHEMBL1201862, “PubChem BioAssay data set” (2004):
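Cultured in 96-well plates, cells were exposed to test compound for 48 hours across five concentrations. The concentration for 50% growth inhibition is given as GI50.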 The source made the active and inactive calls. Rule as the data show it: active = GI50 up to about 1.1 µM and inactive = higher.

What was measured:
Assay in all cases: growth of human tumour cells (NCI), 48 h
A498 = tested on: A498
A549 = tested on: A549
CAKI-1 = tested on: CAKI-1
EKVX = tested on: EKVX
HCC 2998 = tested on: HCC 2998
HL-60 = tested on: HL-60
HOP-92 = tested on: HOP-92
Malme-3M = tested on: Malme-3M
OVCAR-3 = tested on: OVCAR-3
OVCAR-4 = tested on: OVCAR-4
OVCAR-8 = tested on: OVCAR-8
RPMI-8226 = tested on: RPMI-8226
RXF 393 = tested on: RXF 393
SF-268 = tested on: SF-268
SK-MEL-2 = tested on: SK-MEL-2
SK-OV-3 = tested on: SK-OV-3
SW-620 = tested on: SW-620

Measured: GI50

O=C(NO)C(=O)Nc1cc(Cl)ccc1Cl
inactive: A498 > 100 µM | A549 > 100 µM | CAKI-1 23.2 µM | EKVX > 100 µM | HCC 2998 78 µM | HL-60 > 100 µM | HOP-92 69.5 µM | Malme-3M > 100 µM | OVCAR-3 90.6 µM | OVCAR-4 > 100 µM | OVCAR-8 > 100 µM | RPMI-8226 > 100 µM | RXF 393 > 100 µM | SF-268 > 100 µM | SK-MEL-2 > 100 µM | SK-OV-3 > 100 µM | SW-620 > 100 µM

Cc1cc(C(C)C)cc(=O)c(O)c1
inactive: A498 > 100 µM | A549 > 100 µM | CAKI-1 > 100 µM | EKVX > 100 µM | HCC 2998 > 100 µM | HL-60 > 100 µM | HOP-92 > 100 µM | Malme-3M > 100 µM | OVCAR-3 > 100 µM | OVCAR-4 > 100 µM | OVCAR-8 > 100 µM | RPMI-8226 > 100 µM | RXF 393 > 100 µM | SF-268 > 100 µM | SK-OV-3 > 100 µM | SW-620 > 100 µM

CC(=O)/C(=N\O)C(=O)NCCc1ccccc1
inactive: A498 > 100 µM | A549 98.6 µM | CAKI-1 > 100 µM | EKVX > 100 µM | HCC 2998 66.5 µM | HL-60 73.8 µM | HOP-92 > 100 µM | Malme-3M > 100 µM | OVCAR-3 > 100 µM | OVCAR-4 > 100 µM | OVCAR-8 > 100 µM | RPMI-8226 57.7 µM | RXF 393 64.7 µM | SF-268 > 100 µM | SK-MEL-2 > 100 µM | SK-OV-3 > 100 µM | SW-620 38.8 µM

CCOC(=O)CCCO
inactive: A498 > 100 µM | A549 > 100 µM | EKVX > 100 µM | HCC 2998 > 100 µM | HL-60 > 100 µM | HOP-92 > 100 µM | Malme-3M > 100 µM | OVCAR-3 > 100 µM | OVCAR-8 > 100 µM | RPMI-8226 > 100 µM | RXF 393 > 100 µM | SF-268 > 100 µM | SK-MEL-2 > 100 µM | SK-OV-3 > 100 µM | SW-620 > 100 µM

N#CCCN(c1ccc(-c2nnc(NC(=O)CNNC(=O)CC(=O)Nc3ccccc3)s2)cc1)S(=O)(=O)c1ccccc1
inactive: A498 > 100 µM | A549 88.1 µM | CAKI-1 78 µM | EKVX > 100 µM | HCC 2998 > 100 µM | HL-60 39.4 µM | HOP-92 79.6 µM | Malme-3M > 100 µM | OVCAR-3 52.6 µM | OVCAR-4 53.2 µM | OVCAR-8 > 100 µM | RPMI-8226 > 100 µM | SF-268 > 100 µM | SK-MEL-2 > 100 µM | SK-OV-3 > 100 µM | SW-620 > 100 µM
